# Reference: US7351733B2, “Tetrahydrocarbazole derivatives and their pharmaceutical use” (SmithKline Beecham Corporation, priority 2003, dated 2008)
# Counter-ions that a name gives are not always drawn.
# Tested on: episomal HPV-16 DNA in W12-20850 cells
# Assay: W-12 cellular assay (episomal HPV-16 DNA, hybrid capture)
# Type: cell-based, HPV16
# Details: Human papillomavirus 16, 96 h; W12-20850 cells, four days incubation, episomal HPV-16 DNA quantified by hybrid capture, inhibition relative to untreated control cells; read-out: W-12
row,SMILES,IC50 [nM]
1,"Brc1ccc2[nH]c3c(c2c1)CCCC3Nc1ccccc1 (stereo not drawn) [Example 13, 6-Bromo-N-phenyl-2,3,4,9-tetrahydro-1H-carbazol-1-amine]",10
2,"Clc1ccc2[nH]c3c(c2c1)CCCC3Nc1ccccc1 (stereo not drawn) [Example 14, 6-Chloro-N-phenyl-2,3,4,9-tetrahydro-1H-carbazol-1-amine]",< 10
3,"COc1ccc(NC2CCCc3c2[nH]c2ccc(Cl)cc32)cc1 (stereo not drawn) [Example 15, 6-Chloro-N-(4-methoxyphenyl)-2,3,4,9-tetrahydro-1H-carbazol-1-amine]",10
4,"Clc1ccc(NC2CCCc3c2[nH]c2ccc(Cl)cc32)cc1 (stereo not drawn) [Example 16, 6-Chloro-N-(4-chlorophenyl)-2,3,4,9-tetrahydro-1H-carbazol-1-amine]",14
5,"Fc1ccc(NC2CCCc3c2[nH]c2ccc(Cl)cc32)cc1 (stereo not drawn) [Example 17, 6-Chloro-N-(4-fluorophenyl)-2,3,4,9-tetrahydro-1H-carbazol-1-amine]",23
6,"Cc1ccc(NC2CCCc3c2[nH]c2ccc(Cl)cc32)cc1 (stereo not drawn) [Example 18, 6-Chloro-N-(4-methylphenyl)-2,3,4,9-tetrahydro-1H-carbazol-1-amine]",19
7,"COc1ccc(NC2CCCc3c2[nH]c2ccc(Br)cc32)cc1 (stereo not drawn) [Example 19, 6-Bromo-N-(4-methoxyphenyl)-2,3,4,9-tetrahydro-1H-carbazol-1-amine]",< 10
8,"Clc1ccc(NC2CCCc3c2[nH]c2ccc(Br)cc32)cc1 (stereo not drawn) [Example 20, 6-Bromo-N-(4-chlorophenyl)-2,3,4,9-tetrahydro-1H-carbazol-1-amine]",< 10
9,"Fc1ccc(NC2CCCc3c2[nH]c2ccc(Br)cc32)cc1 (stereo not drawn) [Example 21, 6-Bromo-N-(4-fluorophenyl)-2,3,4,9-tetrahydro-1H-carbazol-1-amine]",< 10
10,"Clc1ccc2[nH]c3c(c2c1)CCCC3Nc1ncccn1 (stereo not drawn) [Example 23, 6-Chloro-N-pyrimidin-2-yl-2,3,4,9-tetrahydro-1H-carbazol-1-amine]",44
11,"COc1cc(OC)nc(NC2CCCc3c2[nH]c2ccc(Cl)cc32)n1 (stereo not drawn) [Example 24, 6-Chloro-N-(4,6-dimethoxypyrimidin-2-yl)-2,3,4,9-tetrahydro-1H-carbazol-1-amine]",30
12,"Cc1ccnc(NC2CCCc3c2[nH]c2ccc(Cl)cc32)n1 (stereo not drawn) [Example 25, 6-Chloro-N-(4-methylpyrimidin-2-yl)-2,3,4,9-tetrahydro-1H-carbazol-1-amine]",35
13,"Cc1cc(C)nc(NC2CCCc3c2[nH]c2ccc(Cl)cc32)n1 (stereo not drawn) [Example 26, 6-Chloro-N-(4,6-dimethylpyrimidin-2-yl)-2,3,4,9-tetrahydro-1H-carbazol-1-amine]",62
14,"CCCc1cnc(NC2CCCc3c2[nH]c2ccc(Br)cc32)nc1 (stereo not drawn) [Example 28, 6-Bromo-N-(5-propylpyrimidin-2-yl)-2,3,4,9-tetrahydro-1H-carbazol-1-amine]",15
15,"Cc1ccc2[nH]c3c(c2c1)CCCC3Nc1ncccn1 (stereo not drawn) [Example 29, 6-Methyl-N-pyrimidin-2-yl-2,3,4,9-tetrahydro-1H-carbazol-1-amine]",252
16,"FC(F)(F)c1cnc(NC2CCCc3c2[nH]c2ccc(Br)cc32)nc1 (stereo not drawn) [Example 33, 6-Bromo-N-[5-(trifluoromethyl)pyrimidin-2-yl]-2,3,4,9-tetrahydro-1H-carbazol-1-amine]",44

# Further lines, results first:
row,IC50 [nM],SMILES
1,< 10,"FC(F)(F)c1ccc(NC2CCCc3c2[nH]c2ccc(Br)cc32)nc1 (stereo not drawn) [Example 34, 6-Bromo-N-[5-(trifluoromethyl)pyridin-2-yl]-2,3,4,9-tetrahydro-1H-carbazol-1-amine]"
2,30,"N#Cc1ccc(NC2CCCc3c2[nH]c2ccc(Br)cc32)nc1 (stereo not drawn) [Example 35, 6-[(6-Bromo-2,3,4,9-tetrahydro-1H-carbazol-1-yl)amino]nicotinonitrile]"
3,72,"Brc1ccc2[nH]c3c(c2c1)CCCC3Nc1nc2ccccc2s1 (stereo not drawn) [Example 36, N-(1,3-Benzothiazol-2-yl)-6-bromo-2,3,4,9-tetrahydro-1H-carbazol-1-amine]"
4,4500,"c1cnc(NC2CCCc3c2[nH]c2ccccc32)nc1 (stereo not drawn) [Example 37, N-Pyrimidin-2-yl-2,3,4,9-tetrahydro-1H-carbazol-1-amine]"
5,< 10,"Brc1ccc2[nH]c3c(c2c1)CCCCC3Nc1ncccn1 (stereo not drawn) [Example 38, 2-Bromo-N-pyrimidin-2-yl-5,6,7,8,9,10-hexahydrocyclohepta[b]indol-6-amine]"
6,< 10,"COc1cccc(NC2CCCc3c2[nH]c2ccc(Br)cc32)c1 (stereo not drawn) [Example 45, 6-Bromo-N-(3-methoxyphenyl)-2,3,4,9-tetrahydro-1H-carbazol-1-amine]"
7,< 10,"Fc1cccc(NC2CCCc3c2[nH]c2ccc(Br)cc32)c1 (stereo not drawn) [Example 46, 6-Bromo-N-(3-fluorophenyl)-2,3,4,9-tetrahydro-1H-carbazol-1-amine]"
8,112,"Brc1ccc2[nH]c3c(c2c1)CCCC3Nc1ccc2[nH]ccc2c1 (stereo not drawn) [Example 47, 6-Bromo-N-(1H-indol-5-yl)-2,3,4,9-tetrahydro-1H-carbazol-1-amine]"
9,57,"COc1ccccc1NC1CCCc2c1[nH]c1ccc(Br)cc21 (stereo not drawn) [Example 48, 6-Bromo-N-(2-methoxyphenyl)-2,3,4,9-tetrahydro-1H-carbazol-1-amine]"
10,< 10,"Clc1ccccc1NC1CCCc2c1[nH]c1ccc(Br)cc21 (stereo not drawn) [Example 49, 6-Bromo-N-(2-chlorophenyl)-2,3,4,9-tetrahydro-1H-carbazol-1-amine]"
11,70,"Fc1ccccc1NC1CCCc2c1[nH]c1ccc(Br)cc21 (stereo not drawn) [Example 50, 6-Bromo-N-(2-fluorophenyl)-2,3,4,9-tetrahydro-1H-carbazol-1-amine]"
12,22,"Clc1ccc(NC2CCCc3c2[nH]c2ccc(Br)cc32)cc1Cl (stereo not drawn) [Example 51, 6-Bromo-N-(3,4-dichlorophenyl)-2,3,4,9-tetrahydro-1H-carbazol-1-amine]"

# Same assay, conditions: Human papillomavirus 16, W12-20850, 96 h, read-out: W-12 (nM)
row,SMILES,IC50 [nM]
1,"Brc1ccc2[nH]c3c(c2c1)CCCC3Nc1ncccn1 (stereo not drawn) [Example 22, 6-Bromo-N-pyrimidin-2-yl-2,3,4,9-tetrahydro-1H-carbazol-1-amine hydrochloride]",97
2,"Brc1ccc2[nH]c3c(c2c1)CCCC3Nc1ccccn1 (stereo not drawn) [Example 27, 6-Bromo-N-pyridin-2-yl-2,3,4,9-tetrahydro-1H-carbazol-1-amine hydrochloride]",37
3,"COc1cc(OC)nc(NC2CCCc3c2[nH]c2ccc(C)cc32)n1 (stereo not drawn) [Example 31, N-(4,6-Dimethoxypyrimidin-2-yl)-6-methyl-2,3,4,9-tetrahydro-1H-carbazol-1-amine hydrochloride]",70
4,"Cc1cc(C)nc(NC2CCCc3c2[nH]c2ccc(Br)cc32)n1 (stereo not drawn) [Example 32, 6-Bromo-N-(4,6-dimethylpyrimidin-2-yl)-2,3,4,9-tetrahydro-1H-carbazol-1-amine hydrochloride]",12
5,"FC(F)(F)c1ccc2[nH]c3c(c2c1)CCCC3Nc1ccccc1 (stereo not drawn) [Example 43, N-Phenyl-6-(trifluoromethyl)-2,3,4,9-tetrahydro-1H-carbazol-1-amine hydrochloride]",51
